Laboratory results from PMC11278161 (Marine Drugs, 2024).
*1 amine or outer side, *2 acyl side, *3 side chain or, on linkers, in order; H or OH if unused. Where a SMILES comes first, the peptide text is derived from it. Bridges are numbered along the chain shown (N, C = ends). X1 = CC[C@@]1(OC(=O)CCC(=O)NCCOCCOCCOCCn2cc(COc3cc(C[*:1])cc(C[*:2])c3)nn2)C(=O)OCc2c1cc1n(c2=O)Cc2cc3ccccc3nc2-1; X2 = CC[C@@]1(OC(=O)Cn2cc(COc3cc(C[*:1])cc(C[*:2])c3)nn2)C(=O)OCc2c1cc1n(c2=O)Cc2cc3ccccc3nc2-1

Tested on: A549 cells
Settings: human

Row | SMILES | IC50
1 | CC[C@H](C)[C@@H]1NC(=O)[C@H](CC(N)=O)NC(=O)[C@@H]2CCCN2C(=O)[C@H](CC(N)=O)NC(=O)[C@H](CC(N)=O)NC(=O)[C@H](C(C)C)NC(=O)[C@H](CCCNC(=N)N)NC(=O)[C@@H]2CSSC[C@H](NC(=O)CNC(=O)[C@@H](N)CO)C(=O)N[C@@H](CSCc3cc(cc(OCc4cn(CC(=O)O[C@]5(CC)C(=O)OCc6c5cc5n(c6=O)Cc6cc7ccccc7nc6-5)nn4)c3)CSC[C@@H](C(N)=O)NC1=O)C(=O)N[C@@H](CO)C(=O)N[C@@H](CC(N)=O)C(=O)N1CCC[C@H]1C(=O)N[C@@H](C)C(=O)N2 [LsIA[2,4]-8] (H-SGCCSNPACRVNNPNIC-NH2; disulfide 3-9; linker 4-17 via X2) | 216 nM
2 | CC[C@H](C)[C@@H]1NC(=O)[C@H](CC(N)=O)NC(=O)[C@@H]2CCCN2C(=O)[C@H](CC(N)=O)NC(=O)[C@H](CC(N)=O)NC(=O)[C@H](C(C)C)NC(=O)[C@H](CCCNC(=N)N)NC(=O)[C@@H]2CSSC[C@H](NC(=O)CNC(=O)[C@@H](N)CO)C(=O)N[C@@H](CSCc3cc(cc(OCc4cn(CCOCCOCCOCCNC(=O)CCC(=O)O[C@]5(CC)C(=O)OCc6c5cc5n(c6=O)Cc6cc7ccccc7nc6-5)nn4)c3)CSC[C@@H](C(N)=O)NC1=O)C(=O)N[C@@H](CO)C(=O)N[C@@H](CC(N)=O)C(=O)N1CCC[C@H]1C(=O)N[C@@H](C)C(=O)N2 [LsIA[2,4]-9] (H-SGCCSNPACRVNNPNIC-NH2; disulfide 3-9; linker 4-17 via X1) | 338 nM
